# Test results from patent US11045456B2, “Compositions and methods for treating COPD and other inflammatory conditions” (Georgia State University Research Foundation, Inc., priority 2015, dated 2021).
# Numbered stars: 1 amine (or outer) side, 2 acyl side, 3 side chain; on linkers, the order of the positions; unused ones are H or OH. Bridge positions count the residues as written; N and C are the ends. Square brackets hold non-standard residues; d marks the D form. Peptide text beside a SMILES is read from it. I, II: the chains in the order shown. Actinocin(9to1) = Cc1c2oc3c(C)ccc(C(=O)[*:1])c3nc-2c(C(=O)[*:2])c(N)c1=O; NMeV = CN[C@H](C(=O)O)C(C)C; Sar = CNCC(=O)O
# Tests used:
# PDE4B2 = PDE4B2 expression (RT-PCR) in BEAS-2B cells; format: cell-based, human; conditions: for NTHi-induced PDE4B2 expression (synergy with NTHi): cAMP elevator / PKA or Epac activator with NTHi
# Procedure: (§1) Bacterial strains and culture condition. Clinical isolates of NTHi strain 12 were used in this study (Ishinaga et al., EMBO J., 26(4):1150-1162, 2007). Bacteria were grown on chocolate agar plates at 37° C. in an atmosphere of 5% CO2 overnight and subsequently inoculated in brain heart infusion (BHI) broth supplemented with 3.5 μg/mL NAD and hemoglobin (BD Biosciences). After overnight incubation, the bacteria were subcultured into fresh broth and the log phase bacteria, monitored by measurement of optical density (OD) value, were washed and suspended in DMEM for in vitro cell experiments and in isotonic saline for in vivo animal experiments. For all in vitro experiments except the dose dependent experiment, NTHi was treated at multiplicity of infection (MOI) of 50.
# (§2) Cell culture. All media described below were supplemented with 10% fetal bovine serum (Sigma-Aldrich). Human bronchial epithelial BEAS-2B cells were maintained in RPMI medium (Life Technologies) (ATCC® CRL-9609™). Human primary bronchial epithelial NHBE (Lonza) cells were maintained in bronchial epithelial growth media (BEGM) supplemented with BEGM SingleQuots (Jono et al., J. Biol. Chem. 277(47):45547-45557, 2002). BEAS-2B cells stably expressing human PDE4B2 (PDE4B2-stable cells) were obtained by plasmid transfection following Geneticin selection (300 μg/mL). Cells were cultured in a humidified atmosphere of 5% CO2 at 37° C.
# Plasmids, transfections and luciferase assay. The expression plasmids, constitutively active forms of IKKα (IKKα-CA, S176E/S180E) and IKKβ (IKKβ-CA, S177E/S181E) and a dominant negative form of IκBα (IκBα-DN, S32A/S36A) were previously described (Shuto et al., Proc. Natl. Acad. Sci. USA, 98(15):8774-8779, 2001; Ishinaga et al., supra). Luciferase reporter construct of NF-κB (pGL4.32) was purchased from Promega. Human PDE4B2, p65 (RelA) and PKA-Cβ1/2 cDNA sequences were generated and inserted into the BamHI and HindIII sites of the pcDNA3.1/mycHis(−) vector. Mutant p65 and PDE4B2-D392A were generated by using PRIMESTAR® Max (Takara). Empty vector was used as a control and was also added where necessary to ensure an equivalent amount of input DNA. All transient transfections were carried out in triplicate using TRANSIT-LT1® reagent (Minis) following the manufacturer's instruction.
# p65 = p65 phosphorylation by Phos-tag PAGE in BEAS-2B cells; format: cell-based, human
# Procedure: Phos-tag PAGE. Recombinant p65 proteins or nuclear extracts recovered without EDTA/EGTA were separated by SDS-PAGE, with 6% gels containing 50 μM Mn^2+-Phos-tag Acrylamide and transferred to PVDF membrane according to the manufacture's instructions (Kinoshita et al., Mol. Cell. Proteomics 5(4):749-757, 2006.
# PDE4B [1] = experiment: PDE4B mRNA expression (Q-PCR) in BEAS-2B cells stimulated with NTHi; format: cell-based, human; conditions: BEAS-2B; ActD 5 ng/ml and Rof 0.1 μM 1 hour, then 1.5-hour NTHi
# Procedure: as §1, §2
# [2] = test system: NTHi-induced inflammation; experiment: NTHi-induced inflammation in mouse lung (proinflammatory mediator mRNA, H&E staining); format: in vivo; conditions: DEX 2 mg/kg i.p. and Rof 5 mg/kg i.p. 2 h before NTHi 5×10^7 CFU/lung
# Procedure: Mice and animal experiments. For NTHi-induced inflammation in C57BL/6J mice (7 weeks old), anaesthetized mice were intratracheally inoculated with NTHi at a concentration of 5×10^7 CFU per mouse and saline was inoculated as control.
# . We pre-treated BEAS-2B cells with Rof (1 μM), FSK (1 μM), Iso (0.1 μM) and DEX (10 nM) for 1 h followed by 1.5 h stimulation with NTHi, and PDE4B mRNA expression was analyzed by Q-PCR (FIGS. 7A and 7B). We also pre-treated BEAS-2B cells with Rof (0.1 μM) and DEX (6.5 nM) for 1 h followed by 1.5 h stimulation with NTHi, and PDE4B2 mRNA expression was analyzed by semi-quantitative RT-PCR (FIG. 7C). To assess protein expression, BEAS-2B cells were pre-treated with Rof (0.1 μM) and DEX (100 nM) for 1 h followed by a 5 h stimulation with NTHi, and PDE4B protein expression was analyzed by immunoblot (FIG. 7D). Each target data were normalized with NTHi treated. Data are mean±SD (n=3); *p<0.05 vs NTHi; ^†p<0.05 vs Rof+NTHi. […] After 5 h, mRNA expression in lung tissues were analyzed by Q-PCR for assessing the expression of PDE4B or various proinflammatory mediators and lung tissues were stained against PDE4B (Magnification ×200, Scale bar, 100 μm) (FIG. 7F) and assessed for inflammation using H&E staining (FIG. 7H).
# PDE4B [3] = experiment: PDE4B mRNA expression in lung tissues of NTHi-inoculated mice; conditions: mouse lung; DEX 2 mg/kg i.p. and Rof 5 mg/kg i.p. 2 h before NTHi; after 5 h
# [4] = BEAS-2B cells, inhibitor treatment
smiles,measurement,setting,value
"O=P1(O)OC[C@H]2O[C@@H](n3cnc4c(Nc5ccccc5)ncnc43)[C@@H](O)C2O1 (stereo partly shown) [6-Phe-cAMP, N^6-Phenyl-cAMP]",NTHi-induced PDE4B2 expression (synergy with NTHi),PDE4B2; BEAS-2B cells,synergistically enhanced
same,PDE4B2 expression,PDE4B2; in IKKβ-CA- but not IKKα-CA-transfected BEAS-2B cells,synergistically enhanced
same,phosphorylation of p65 (induction),p65; roflumilast as co-treatment with NTHi,induced this phosphorylation
CO[C@@H]1[C@@H]2OP(=O)(O)OC[C@H]2O[C@H]1n1c(Sc2ccc(Cl)cc2)nc2c(N)ncnc21 [8-pCPT-2′-O-Me-cAMP],NTHi-induced PDE4B2 expression (synergy with NTHi),PDE4B2; BEAS-2B cells,did not markedly synergize
"Cc1c2oc3c(C)ccc(C(=O)N[C@@H]4C(=O)N[C@H](C(C)C)C(=O)N5CCC[C@H]5C(=O)N(C)CC(=O)N(C)[C@@H](C(C)C)C(=O)O[C@@H]4C)c3nc-2c(C(=O)N[C@@H]2C(=O)N[C@H](C(C)C)C(=O)N3CCC[C@H]3C(=O)N(C)CC(=O)N(C)[C@@H](C(C)C)C(=O)O[C@@H]2C)c(N)c1=O [ActD, actinomycin D] (I: T[dV]P[Sar][NMeV] / II: T[dV]P[Sar][NMeV]; ester I:1-I:C, II:1-II:C; linker I:N-II:N via Actinocin(9to1))",PDE4B induction by NTHi and roflumilast,PDE4B [1],completely abrogated
"C[C@@H]1C[C@H]2[C@@H]3CCC4=CC(=O)C=C[C@]4(C)[C@@]3(F)[C@@H](O)C[C@]2(C)[C@@]1(O)C(=O)CO [Dexamethasone, dexamethasone]",efficacy of Rof in suppressing NTHi-induced inflammation,[2],improves the efficacy of Rof
same,PDE4B induction by NTHi and Rof,PDE4B [3],suppresses
O=S(=O)(NCCNC/C=C/c1ccc(Br)cc1)c1cccc2cnccc12 [H89],phosphorylation of p65 induced by overexpression of PKA-Cβ1 (inhibition),p65,inhibited
NC(=O)Nc1sc(-c2ccc(F)cc2)cc1C(N)=O [IKKβ inhibitor],induction of PDE4B2 by roflumilast alone,PDE4B2; [4],did not affect
same,synergistic induction of PDE4B2 by NTHi and roflumilast,PDE4B2; [4],significantly inhibited
COc1cccc(-c2cc(=O)c3ccccc3o2)c1N [PD98059],phosphorylation of p65 induced by overexpression of PKA-Cβ1 (inhibition),p65,not
Nc1ncnc2c1nc(Sc1ccc(Cl)cc1)n2[C@@H]1O[C@@H]2COP(O)(=S)O[C@H]2[C@H]1O (stereo partly shown) [Rp-8-CPT-cAMPS],phosphorylation of p65 induced by co-treatment of roflumilast with NTHi (inhibition),p65,inhibited
C[S+]([O-])c1ccc(-c2nc(-c3ccncc3)c(-c3ccc(F)cc3)[nH]2)cc1 (stereo not shown) [SB203580],phosphorylation of p65 induced by overexpression of PKA-Cβ1 (inhibition),p65,not
